Activity calls are given as the source filed them. The rule behind the calls is not given here.
Legend:
[1] = Binding affinity to T box antiterminator RNA AM1A by FRET
[2] = Induction of tRNA-UCCA binding to T box antiterminator RNA AM1A at 200 uM by FRET method
[3] = Binding affinity to T box antiterminator RNA

In the case of `NC[C@@H]1O[C@H](O[C@H]2[C@@H](O)[C@H](O[C@@H]3[C@@H](O)[C@H](N)C[C@H](N)[C@H]3O[C@H]3O[C@H](CN)[C@@H](O)[C@H](O)[C@H]3N)O[C@@H]2CO)[C@H](N)[C@@H](O)[C@@H]1O` [FRAMYCETIN], the Kd [1] is reported as 8 µM, the Activity [2] is reported as “Active” and the Kd [3] is reported as 8 µM.

Reference: ChEMBL document CHEMBL1149873, “Identification of neomycin B-binding site in T box antiterminator model RNA” (Bioorg Med Chem, 2008)
